Molecules are shown by their SMILES. Structures can show the parent of a compound that is named as a salt. Where two headings read alike, the source gives them in different places.

For test [1], the target named is nicotinic receptors (non-selective). Kind of test: in vitro inhibition of 3H-epibatidin binding. The following applies: radioligand 3H-epibatidin. The source says:
the in vitro inhibition of ^3H-epibatidin binding, which is a standard assay for determining non-selective binding to nicotinic receptors,
(§1) Such standard assays are described in e.g. WO 99/21834.
(§2) In this example the affinity of compounds of the invention for nicotinic acetylcholine receptors are investigated using standard assays described in WO 99/21834.
First the in vitro inhibition of ^3H-epibatidin binding, which is a standard assay for determining non-selective binding to nicotinic receptors, was determined.

For test [2], the target named is α4β2-subtype of nicotinic receptors (Rattus norvegicus, UniProt P09483+P12390). Kind of test: in vitro inhibition of 3H-cytisine binding.
Excerpt: the in vitro inhibition ^3H-cytisine binding, which is a standard assay for determining selective binding to α4β2 subtype of nicotinic receptors, and/or
as §1, §2
Next the in vitro inhibition ^3H-cytisine binding, which is a standard assay for determining selective binding to α4β2-subtype of nicotinic receptors, was determined.

Test [3] addresses α7-subtype of nicotinic receptors (Rattus norvegicus, UniProt Q05941). Kind of test: biochemical. The class given is binding.

Chain of α4β2-subtype of nicotinic receptors (P09483 31-630): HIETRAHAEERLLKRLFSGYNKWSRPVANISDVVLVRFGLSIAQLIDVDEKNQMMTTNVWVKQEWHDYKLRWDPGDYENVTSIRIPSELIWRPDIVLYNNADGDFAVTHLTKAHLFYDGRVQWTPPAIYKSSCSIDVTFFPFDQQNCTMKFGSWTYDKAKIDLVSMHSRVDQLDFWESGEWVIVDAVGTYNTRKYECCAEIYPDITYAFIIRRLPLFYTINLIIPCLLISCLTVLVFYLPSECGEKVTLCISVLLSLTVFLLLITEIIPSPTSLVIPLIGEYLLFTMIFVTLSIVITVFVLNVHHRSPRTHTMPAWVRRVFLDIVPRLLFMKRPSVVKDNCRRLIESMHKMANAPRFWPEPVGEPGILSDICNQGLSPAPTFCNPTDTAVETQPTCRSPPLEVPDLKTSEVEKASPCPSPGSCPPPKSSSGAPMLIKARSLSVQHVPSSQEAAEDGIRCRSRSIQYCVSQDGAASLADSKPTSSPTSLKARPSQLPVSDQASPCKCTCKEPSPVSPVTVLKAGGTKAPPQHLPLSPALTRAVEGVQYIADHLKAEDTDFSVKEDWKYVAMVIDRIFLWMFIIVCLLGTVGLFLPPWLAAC
Chain of α4β2-subtype of nicotinic receptors (P12390 25-500): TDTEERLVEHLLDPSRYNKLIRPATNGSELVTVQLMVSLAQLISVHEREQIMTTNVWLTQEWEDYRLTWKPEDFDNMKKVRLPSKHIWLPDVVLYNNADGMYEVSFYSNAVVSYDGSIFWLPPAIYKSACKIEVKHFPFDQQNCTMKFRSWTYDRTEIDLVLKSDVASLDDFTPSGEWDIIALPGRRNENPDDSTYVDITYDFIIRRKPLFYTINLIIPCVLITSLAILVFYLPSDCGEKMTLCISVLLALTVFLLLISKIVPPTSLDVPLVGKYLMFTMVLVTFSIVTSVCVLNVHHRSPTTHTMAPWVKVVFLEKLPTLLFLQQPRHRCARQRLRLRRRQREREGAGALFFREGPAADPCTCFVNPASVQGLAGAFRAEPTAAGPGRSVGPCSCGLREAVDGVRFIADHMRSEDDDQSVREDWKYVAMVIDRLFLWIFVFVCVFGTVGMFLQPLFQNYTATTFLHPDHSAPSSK
Chain of α7-subtype of nicotinic receptors (Q05941 23-502): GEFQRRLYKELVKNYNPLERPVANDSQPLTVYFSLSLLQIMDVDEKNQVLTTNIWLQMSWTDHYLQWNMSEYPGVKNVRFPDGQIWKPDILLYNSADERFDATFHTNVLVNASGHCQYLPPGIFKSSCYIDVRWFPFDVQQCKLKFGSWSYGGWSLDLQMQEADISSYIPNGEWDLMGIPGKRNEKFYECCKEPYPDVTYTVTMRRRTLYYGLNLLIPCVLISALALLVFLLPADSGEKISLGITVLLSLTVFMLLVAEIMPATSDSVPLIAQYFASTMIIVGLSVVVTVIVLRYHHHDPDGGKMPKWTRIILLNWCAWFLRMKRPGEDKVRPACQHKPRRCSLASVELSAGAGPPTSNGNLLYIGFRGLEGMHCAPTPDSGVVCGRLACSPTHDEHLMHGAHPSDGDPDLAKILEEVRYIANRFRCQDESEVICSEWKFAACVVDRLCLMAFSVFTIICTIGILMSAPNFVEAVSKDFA

For the compound `c1ccc2cc(C3CN4CCC3CC4)ccc2c1` (racemic) [Compound C1, (±)-3-(2-Naphthyl)-quinuclidine fumaric acid salt], the IC50 was found to be 7.5 µM in test [1], 6 µM in test [2] and 0.15 µM in test [3].

For `C1=C(c2ccc3ccccc3c2)C2CCN1CC2` [Compound B1, 3-(2-Naphthyl)-quinuclidine-3-ene fumaric acid salt], the IC50 in test [1] was 17 µM; in test [2] (radioligand 3H-cytisine, read-out: in vitro Inhibition of Binding (IC50) 3H-cytisine binding), 10 µM; in test [3], 0.058 µM.

By IC50 is commonly meant the concentration needed to halve the response being measured.

The record behind these values is patent publication US20040044026A1, “3-Substituted quinuclidines and their use as nicotinic agonists” (priority 2000, published 2004).
